The values below come from ChEMBL document CHEMBL1147238, “Komodoquinone A, a novel neuritogenic anthracycline, from marine Streptomyces sp. KS3” (J Nat Prod, 2003).

Molecules are shown by their SMILES. Calls of active or inactive are those of the source. No cut-off for these calls is given here.

Test [1] relates to N2a. Nature of the test: Neuritogenic activity in mouse Neuro2a cells assessed as morphological changes at 3 ug/mL after 24 or 48 hrs. The class given is functional, cell-based.
Test [2] deals with N2a. Nature of the test: Neuritogenic activity in mouse Neuro2a cells assessed as morphological changes at 1 ug/mL after 24 or 48 hrs. The class given is functional, cell-based.

On to `COc1cccc2c1C(=O)c1c(O)c3c(c(O)c1C2=O)C[C@@](O)(C(=O)CO)C[C@@H]3O[C@H]1C[C@H](N)[C@H](O)[C@H](C)O1`, for which, in the test on N2a [1], the result was inactive.

For `C[C@@H]1O[C@@H](Oc2cccc3c2C(=O)c2c(O)c4c(c(O)c2C3=O)C[C@](C)(O)C[C@@H]4O)[C@@H](O)[C@H](N(C)C)[C@@H]1O`, the result in the test on N2a [2] was Active.
